From BindingDB's records for doi:10.1021/jm00076a005 (Glaxo Group Research, 1993)

Biological target: T1, Gag-Pol polyprotein [588-1027]/[588-1147] (Human immunodeficiency virus 1, UniProt P04585)
T1 construct: 588-1027; 588-1147
Assay: HIV-1 RT Assay
Source text: The IC50 of reverse transcriptase is the concentration that inhibits 50% of recombinant HIV-1 RT RNA-directed DNA polymerase activity in vitro.

Cc1nc(CCCCCCC(=O)c2ccccc2)n2nc(-n3cncc3C)ccc12 [7-[5-methyl-2-(5-methyl-1H-imidazol-1-yl)imidazo[1,5-a]pyridazin-7-yl]-1-phenylheptan-1-one]
IC50: 100 nM

Cc1nc(CCCCCCC(=O)c2ccccc2)n2nc(-n3cncn3)ccc12 [7-[5-methyl-2-(1H-1,2,4-triazol-1-yl)imidazo[1,5-a]pyridazin-7-yl]-1-phenylheptan-1-one]
IC50: 100 nM

Cc1nc(CCCCCO)n2nc(Cl)ccc12 [5-{2-chloro-5-methylimidazo[1,5-a]pyridazin-7-yl}pentan-1-ol]
IC50 (pH 8, 37 °C): 100000 nM
